According to US20260083865A1, “PROSTATE SPECIFIC MEMBRANE ANTIGEN (PSMA) LIGANDS AND USE THEREOF” (priority 2022, published 2026):
Where two headings read alike, the source gives them in different places. One block for each molecule: values may come before it. Numbered stars: 1 amine (or outer) side, 2 acyl side, 3 side chain; on linkers, the order of the positions; unused ones are H or OH. Bridge positions count the residues as written; N and C are the ends. Square brackets hold non-standard residues; d marks the D form. Side chains are listed from the residue outwards. Peptide text beside a SMILES is read from it. * marks the point of attachment. X11 = O=C(CCCC[C@@H]1SC[C@@H]2NC(=O)N[C@@H]21)NCCCOCCOCCOCCCNC(=O)CCC(=O)NCCCOCCOCCOCCCN*; X3 = O=C(O)CN1CCN(CC(=O)O)CCN(CC(=O)NCCCOCCOCCOCCCN*)CCN(CC(=O)O)CC1; DOTA = O=C(O)CN1CCN(CC(=O)O)CCN(CC(=O)*)CCN(CC(=O)O)CC1; Phe(4-Cl) = N[C@@H](Cc1ccc(Cl)cc1)C(=O)O; X1 = O=C(CC1CCN([*:1])CC1)[*:2]; Cit = NC(=O)NCCC[C@H](N)C(=O)O; Suc = O=C(CCC(=O)[*:2])[*:1]; Tle = CC(C)(C)[C@H](N)C(=O)O; Propanoyl(3-OH) = O=C(CCO)*; Nle = CCCC[C@H](N)C(=O)O; Aib = CC(C)(N)C(=O)O; CO = O=C([*:1])[*:2]; Guanidino = N=C(N)N*; NHBu = CCCCN*

Tests used:
[1] = target: T1, Fc-fusion protein of human PSMA (hPSMA-Fc) (Homo sapiens, UniProt Q04609); assay: Surface plasmon resonance assay (Biacore T200, single cycle kinetic); format: binding; conditions: read-out: pKD CAT (converted)
T1 construct: purchased Acro Biosystems PSA-H5264
Procedure, shortened: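 KD, expressed as pKD, came from 1:1 Langmuir fits of reference- and buffer-blank-subtracted SPR data. The runs were single-cycle kinetics at 25° C in HBST/0.1% DMSO over human PSMA-Fc, captured to ~1000 RU on a peptide-coated CM5 surface and regenerated with 10 mM glycine pH 1.5.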

[2] = target: T2, PSMA-expressing C4-2 cells (Homo sapiens, UniProt Q04609); assay: FACS binding assay (competition with 50 nM PSM-0183); conditions: read-out: pIC50 [C4-2] CAT (converted)
T2 construct: PSMA-expressing C4-2 cells (ATCC, Cat. No. CRL-3314) were cultured in RPMI-1640; host or cells: C4-2 cells
Procedure, shortened: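 Competition format: fluorescent tracer PSM-0183 (50 nM) displaced from PSMA on C4-2 cells by a test compound titration over 1 h at 4 °C. Bound tracer was quantified as flow-cytometric AF488 median fluorescence after washing. Four-parameter logistic fits of MFI data gave IC50 and pIC50.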

[3] = pKD category for PSMA SPR activity assay, hPSMA-Fc, 25° C.
[4] = pIC50 category of FACS binding, C4-2 cells
[5] = SPR, hPSMA-Fc, single cycle kinetic, 25° C., category
[6] = FACS binding, C4-2 cells, competition with 50 nM PSM-0183, category

T2 sequence (Q04609 whole entry): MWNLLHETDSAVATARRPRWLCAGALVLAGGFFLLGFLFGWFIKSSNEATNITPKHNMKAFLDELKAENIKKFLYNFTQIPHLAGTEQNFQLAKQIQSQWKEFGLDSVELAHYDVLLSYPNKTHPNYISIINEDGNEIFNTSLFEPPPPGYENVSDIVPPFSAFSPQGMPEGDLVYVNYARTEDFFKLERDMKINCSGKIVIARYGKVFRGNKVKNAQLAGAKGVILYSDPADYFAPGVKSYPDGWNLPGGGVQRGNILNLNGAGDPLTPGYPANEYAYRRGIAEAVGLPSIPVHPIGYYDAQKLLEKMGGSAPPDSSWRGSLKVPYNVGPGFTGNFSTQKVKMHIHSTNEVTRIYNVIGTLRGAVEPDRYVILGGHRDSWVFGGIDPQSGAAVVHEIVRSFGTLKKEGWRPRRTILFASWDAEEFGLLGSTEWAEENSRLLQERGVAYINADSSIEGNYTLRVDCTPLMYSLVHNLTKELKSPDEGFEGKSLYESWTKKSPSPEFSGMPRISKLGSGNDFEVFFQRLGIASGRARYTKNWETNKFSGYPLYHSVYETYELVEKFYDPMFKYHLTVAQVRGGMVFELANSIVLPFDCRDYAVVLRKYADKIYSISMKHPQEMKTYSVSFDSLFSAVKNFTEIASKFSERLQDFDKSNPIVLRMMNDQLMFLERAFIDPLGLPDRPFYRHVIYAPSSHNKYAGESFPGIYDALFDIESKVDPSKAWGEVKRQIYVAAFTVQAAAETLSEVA
T1 sequence (Q04609 44-750 limits assumed): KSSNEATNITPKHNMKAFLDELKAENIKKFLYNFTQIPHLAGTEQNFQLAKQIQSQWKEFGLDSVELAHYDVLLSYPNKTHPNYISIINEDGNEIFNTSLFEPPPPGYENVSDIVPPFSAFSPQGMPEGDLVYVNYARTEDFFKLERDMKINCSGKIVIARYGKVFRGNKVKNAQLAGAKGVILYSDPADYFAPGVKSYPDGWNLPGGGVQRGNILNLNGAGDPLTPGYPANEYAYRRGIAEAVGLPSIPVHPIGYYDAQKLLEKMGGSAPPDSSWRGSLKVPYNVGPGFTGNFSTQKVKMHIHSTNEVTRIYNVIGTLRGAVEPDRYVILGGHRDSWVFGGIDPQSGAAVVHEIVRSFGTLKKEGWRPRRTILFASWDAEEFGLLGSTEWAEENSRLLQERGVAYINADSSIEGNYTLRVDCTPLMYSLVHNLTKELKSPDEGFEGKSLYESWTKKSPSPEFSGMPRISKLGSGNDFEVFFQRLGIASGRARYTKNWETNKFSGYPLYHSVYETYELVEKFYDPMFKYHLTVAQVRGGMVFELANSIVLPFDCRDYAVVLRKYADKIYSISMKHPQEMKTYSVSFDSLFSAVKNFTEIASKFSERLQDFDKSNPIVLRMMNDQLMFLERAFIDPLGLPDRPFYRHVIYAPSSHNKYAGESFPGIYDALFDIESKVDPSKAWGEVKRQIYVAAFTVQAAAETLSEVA

Kd ([1]; PSMA SPR assay, category): < 12.6 nM | IC50 ([2]; FACS binding, C4-2 cells, category): < 200 nM
Compound: C[C@@H](O)[C@H](NC(=O)[C@@H](NC(=O)[C@@H]1CSSC[C@H](NC(=O)[C@H](Cc2ccc(Cl)cc2)NC(=O)C(C)(C)NC(=O)[C@@H](NC(=O)CCC(=O)NCCCOCCOCCOCCCNC(=O)CCC(=O)NCCCOCCOCCOCCCNC(=O)CCCC[C@@H]2SC[C@@H]3NC(=O)N[C@@H]32)[C@@H](C)O)C(=O)N[C@@H](CCCCN)C(=O)N[C@@H](CCCNC(=N)N)C(=O)NC(C)(C)C(=O)N[C@@H](CC(N)=O)C(=O)N1)C(C)(C)C)C(N)=O [PSM-0575, Bio-Ttds-Ttds-Thr-Aib-Pcf-[Cys-Lys-Arg-Aib-Asn-Cys]-Tle-Thr-NH2] ({X11-Suc}-T[Aib][Phe(4-Cl)]CKR[Aib]NC[Tle]T-NH2; disulfide 4-9)

Kd [1, 3]: < 12.6 nM | IC50 [2, 4]: < 200 nM
Compound: C[C@@H](O)[C@H](NC(=O)[C@@H](NC(=O)[C@@H]1CSSC[C@H](NC(=O)[C@H](Cc2ccccc2)NC(=O)C(C)(C)NC(=O)CCO)C(=O)N[C@@H](CCCCN)C(=O)N[C@@H](CCCNC(=N)N)C(=O)NC(C)(C)C(=O)N[C@@H](CC(N)=O)C(=O)N1)C(C)(C)C)C(N)=O [PSM-0530, HPA-Aib-Phe-[Cys-Lys-Arg-Aib-Asn-Cys]-Tle-Thr-NH2] ({Propanoyl(3-OH)}-[Aib]FCKR[Aib]NC[Tle]T-NH2; disulfide 3-8)

Kd [1, 5]: < 12.6 nM | IC50 [2, 6]: < 200 nM
Compound: CCCC[C@@H]1NC(=O)[C@@H](NC(=O)[C@H](Cc2ccc(Cl)cc2)NC(=O)C(C)(C)NC(=O)[C@@H](NC(C)=O)[C@@H](C)O)CSSC[C@@H](C(=O)N[C@H](C(=O)N[C@H](C(N)=O)[C@@H](C)O)C(C)(C)C)NC(=O)[C@H](CC(N)=O)NC(=O)C(C)(C)NC(=O)[C@H](CCC(=O)NC(=N)N)NC1=O [PSM-0236, Ac-Thr-Aib-Pcf-[Cys-Nle-Gln(Gu)-Aib-Asn-Cys]-Tle-Thr-NH2] (Ac-T[Aib][Phe(4-Cl)]C[Nle]E(Guanidino)[Aib]NC[Tle]T-NH2; disulfide 4-9)

Kd [1, 3]: < 12.6 nM | IC50 [2, 4]: < 200 nM
Compound: CC(=O)N[C@H](C(=O)NC(C)(C)C(=O)N[C@@H](Cc1ccccc1)C(=O)N[C@H]1CSSC[C@@H](C(=O)N[C@H](C(=O)N[C@H](C(N)=O)[C@@H](C)O)C(C)(C)C)NC(=O)[C@H](CC(N)=O)NC(=O)[C@H](CCCCNC(=O)CCC(=O)NCCCOCCOCCOCCCNC(=O)CN2CCN(CC(=O)O)CCN(CC(=O)O)CCN(CC(=O)O)CC2)NC(=O)[C@H](CCCNC(=N)N)NC(=O)[C@H](CCCCN)NC1=O)[C@@H](C)O [PSM-0465, Ac-Thr-Aib-Phe-[Cys-Lys-Arg-Lys(DOTA-Ttds)-Asn-Cys]-Tle-Thr-NH2] (Ac-T[Aib]FCKRK([Suc-X3])NC[Tle]T-NH2; disulfide 4-9)

Kd [1, 5]: 12.6 to 126 nM | IC50 [2, 6]: < 200 nM
Compound: CCCCNC(=O)N[C@H](C(=O)NC(C)(C)C(=O)N[C@@H](Cc1ccc(Cl)cc1)C(=O)N[C@H]1CSSC[C@@H](C(=O)N[C@H](C(=O)N[C@H](C(=O)N2CCC(CC(=O)N[C@H](CCCCNC(=O)CN3CCN(CC(=O)O)CCN(CC(=O)O)CCN(CC(=O)O)CC3)C(N)=O)CC2)[C@@H](C)O)C(C)(C)C)NC(=O)[C@H](CC(N)=O)NC(=O)C(C)(C)NC(=O)[C@H](CCCNC(N)=O)NC(=O)[C@H](CCCCN)NC1=O)[C@@H](C)O [PSM-0204, nBuCAyl-Thr-Aib-Pcf-[Cys-Lys-Cit-Aib-Asn-Cys]-Tle-Thr-Cmp-lys(DOTA)-NH2] ({NHBu-CO}-T[Aib][Phe(4-Cl)]CK[Cit][Aib]NC[Tle]T[X1][dK](DOTA)-NH2; disulfide 4-9)

Kd [1, 3]: 12.6 to 126 nM | IC50 [2, 4]: 200 to 1260 nM
Compound: CCCCNC(=O)N[C@H](C(=O)NC(C)(C)C(=O)N[C@@H](Cc1ccccc1)C(=O)N[C@H]1CSSC[C@@H](C(=O)N[C@H](C(=O)N[C@H](C(=O)N2CCC(CC(=O)N[C@H](CCCCNC(=O)CN3CCN(CC(=O)O)CCN(CC(=O)O)CCN(CC(=O)O)CC3)C(N)=O)CC2)[C@@H](C)O)C(C)(C)C)NC(=O)[C@H](CC(N)=O)NC(=O)C(C)(C)NC(=O)[C@H](CCCNC(N)=O)NC(=O)[C@H](CCCCN)NC1=O)[C@@H](C)O [PSM-0434, nBuCAyl-Thr-Aib-Phe-[Cys-Lys-Cit-Aib-Asn-Cys]-Tle-Thr-Cmp-lys(DOTA)-NH2] ({NHBu-CO}-T[Aib]FCK[Cit][Aib]NC[Tle]T[X1][dK](DOTA)-NH2; disulfide 4-9)

Kd ([1]; PSMA SPR assay, hPSMA-Fc, 25° C., pKD category): > 501 nM | IC50 ([2]; FACS binding, PSMA-expressing C4-2 cells, pIC50 category): > 3160 nM
Compound: C[C@@H](O)[C@H](NC(=O)[C@@H](NC(=O)[C@@H]1CSSC[C@H](NC(=O)[C@H](Cc2ccc(Cl)cc2)NC(=O)[C@H](CCC(=O)O)NC(=O)[C@@H](NC(=O)CC2CCN(C(=O)CN3CCN(CC(=O)O)CCN(CC(=O)O)CCN(CC(=O)O)CC3)CC2)[C@@H](C)O)C(=O)N[C@@H](CCCCN)C(=O)N[C@@H](CCCNC(=N)N)C(=O)NC(C)(C)C(=O)N[C@@H](CC(N)=O)C(=O)N1)C(C)(C)C)C(N)=O [PSM-0276, DOTA-Cmp-Thr-Glu-Pcf-[Cys-Lys-Arg-Aib-Asn-Cys]-Tle-Thr-NH2] ({DOTA}-[X1]TE[Phe(4-Cl)]CKR[Aib]NC[Tle]T-NH2; disulfide 5-10)
